Test results from patent US20230183305A1, “KERATIN BD-11, PREPARATION METHOD THEREFOR AND PHARMACEUTICAL COMPOSITION AND USE THEREOF” (INSTITUTE OF MATERIA MEDICA, CHINESE ACADEMY OF MEDICAL …, priority 2019, published 2023).
Where a name gives a salt, the structure may show the parent alone. Marks after values point to notes of the source that are not given here.

What was measured:
[1] = test system: lipopolysaccharide (LPS) induced fever in SD rats; test: Lipopolysaccharide (LPS) induced fever model in SD rats; assay type: in vivo, rat; conditions: aspirin 300 mg/kg oral
Procedure: • Animals: 230-260 grams of male SD rats; • Drugs: lipopolysaccharide (LPS, SIGMAL-2880), aspirin (SIGMA A2093), protein BD-11; • Instruments: electronic balance (SARTORIUS BP121S type), electronic clinical thermometer (CITIZEN CT-513W type).
Experiment grouping: • Normal control group; • Model group: lipopolysaccharide fever model; • Positive control group: Aspirin 300 mg/kg group; • Protein BD-11, 10 mg/kg group, 50 mg/kg group. Method: the method of intraperitoneal injection of Lipopolysaccharide to replicate rat fever model.
(§1) Preparation of experimental animals: After the experimental animals adapt to the experimental environment (temperature 22° C.±2° C., relative humidity 50%±2%) for 1 day. Pre-adaptation to measure rectal temperature at 8:00 and 15:00, rats were fasted and water was taken freely 12 h before experiment, and let the animal to empty its feces before measuring the rectal temperature. Apply petroleum jelly to the electronic thermometer probe before each temperature measurement. Insert the rat rectum 2 cm (can be marked at 2 cm to ensure that the depth of each insertion is consistent), and record the body temperature after the reading is stable.
Intraperitoneal injection of lipopolysaccharide to replicate rat fever model: The body temperature of the rats was measured before modeling. Qualified rats with a body temperature of 36.2-37.3° C. were selected and randomly divided into groups with 8 rats in each group. After oral administration of aspirin and different doses of protein BD-11, lipopolysaccharide (20 µg/kg, 2 ml/kg) was injected intraperitoneally immediately, and the normal control group was injected intraperitoneally with an equal volume of normal saline. The body temperatures of the rats were monitored after 2 hours for a total of 8 hours.
(§2) According to the body temperature measured at each time point on the day of the experiment, calculate the mean, standard deviation and standard error of the body temperature of each group of rats. The data of each group was compared with TTEST, and P<0.05 was considered as a significant difference.
Immediately after oral administration of aspirin (300 mg/kg), protein BD-11 (10 mg/kg, 50 mg/kg), intraperitoneal injection of 20 µg/kg lipopolysaccharide was performed to establish a model. The animal body temperature was monitored at 2 hours, 4 hours, 6 hours, and 8 hours after modeling.

[2] = test system: yeast-induced fever model in SD rats; test: Yeast-induced fever model in SD rats; assay type: in vivo, rat; conditions: aspirin 300 mg/kg oral
Procedure: • Animals: 230-260 grams of male SD rats;; • Drugs: yeast (OXOID LP0021), aspirin (SIGMA A2093), protein BD-11; • Instruments: electronic balance (SARTORIUS BP121S type), electronic clinical thermometer (CITIZEN CT-513W type).
Experiment grouping: • Normal control group; • Model group: yeast fever model; • Positive control group: Aspirin 300 mg/kg group; • Protein BD-11, 10 mg/kg group, 50 mg/kg group.
as §1
Subcutaneous injection of dry yeast to replicate rat fever model: The body temperature of the rats was measured before modeling. Qualified rats with a body temperature of 36.2-37.3° C. were selected and randomly divided into groups with 8 rats in each group. After oral administration of aspirin and different doses of protein BD-11, 20% yeast suspension (10 ml/kg) was injected subcutaneously immediately, and the normal control group was injected intraperitoneally with an equal volume of normal saline. The body temperatures of the rats were monitored after 2 hours for a total of 8 hours.
as §2
Immediately after oral administration of aspirin (300 mg/kg), protein BD-11 (10 mg/kg, 50 mg/kg), subcutaneous injection of 20% yeast was performed to establish a model. The animal body temperature was monitored at 2 hours, 4 hours, 6 hours, and 8 hours after modeling.

[3] = test system: acetic acid writhing in ICR mice; test: Acetic acid writhing test in ICR mice; assay type: in vivo, mouse
Procedure: • Animals: male ICR mice; • Drugs and reagents: aspirin, physiological saline, glacial acetic acid, protein BD-11.
Experiment grouping: • Model group; • Aspirin 300 mg/kg group; • Protein BD-11, 50 mg/kg group, 200 mg/kg group.
One day after the experimental animals adapt to the environment, Aspirin 300 mg/kg, protein BD-11 50 mg/kg, 200 mg/kg were given orally one hour in advance, and the administration volume was 10 ml/kg; Then, 0.6% acetic acid solution was injected intraperitoneally, and the incubation period (seconds) and frequency of writhing in the animal was observed within 15 minutes.
Calculate the mean and standard error of the data in each group. Compared with the model group by TTEST, P<0.05 was considered as statistically different.
One hour after oral administration of aspirin 300 mg/kg and different doses of protein BD-11 (50 mg/kg, 200 mg/kg), 0.6% acetic acid solution was intraperitoneally injected to observe the writhing incubation period and frequency of ICR mice.
0.6% acetic acid solution was injected into the abdominal cavity of mice, which caused deep and large area and long-term painful stimulation, causing the mice to writhe (the abdomen was contracted into an “S” shape, the trunk and hind legs were stretched, the buttocks were raised and creeping). The incubation time to start writhing and times of writhing in mice were used as the pain response indexs to determine whether the test sample had analgesic effect. […] Compared with the model group, P<0.05, which is statistically significant.

[4] = test system: ammonia water induced cough in ICR mice; test: Antitussive test, cough induced by ammonia water in mice; assay type: in vivo, mouse
Procedure: • Animals: male ICR mice; • Drugs and reagents: dextromethorphan hydrobromide, ammonia water, 0.2% CMC-Na, protein BD-11; • Apparatus: Compressed nebulizer (403T type), balance (XS105DU type).
Experiment grouping: • Solvent control group; • Dextromethorphan 15 mg/kg group; • Protein BD-11, 20 mg/kg group, 50 mg/kg group.
Dextromethorphan and different doses of protein BD-11 (administration volume 10 ml/kg) were given orally in groups, and the solvent control group was given the same volume of distilled water. One hour later, mice were put into a sealed box and atomized 10% ammonia water for 10 seconds, and then observed and recorded the incubation period of cough in mice and the number of coughs in 2 minutes.
Record the time point of oral administration, the time point of atomization experiment, the incubation period of mice cough and the number of coughs within 2 minutes, respectively. The incubation period of cough refers to the number of seconds from the start of the atomization of ammonia to the occurrence of cough. The performance of coughing in mice is based on contraction of their abdominal muscles (breast contraction) and opening their mouths at the same time. Calculate the mean and standard error of each group of data, and use TTEST to compare the model group with other groups, and P<0.05 is considered as a significant difference.
Give dextromethorphan (15 mg/kg) and different doses of protein BD-11 (20 mg/kg, 50 mg/kg) in advance, One hour later, the mice were put into a sealed box and atomized 10% ammonia water for 10 seconds, and then the mice were observed and recorded the incubation period of coughing and the number of coughs within 2 minutes.

[5] = test system: PLO-induced epilepsy in ICR mice; test: Pilocarpine (PLO) induced convulsive epilepsy in mice; assay type: in vivo, mouse; parameters: mortality rate: unit not given here; conditions: Diazepam 2 mg/kg
Procedure: • Animals: male ICR mice; • Drugs: Pilocarpine HCl (PLO, pilocarpine, pilocarpine hydrochloride), Diazepam (diazepam tablets), protein BD-11.
Experiment grouping: • Model group: • Diazepam 2 mg/kg group; • Protein BD-11, 50 mg/kg group, 200 mg/kg group.
The drug was administered once in the afternoon the day before modeling, PLO-225 mg/kg (modeling agent) was injected intraperitoneally 1 hour after the test drug was administered intragastrically on the day of modeling. And positive drug can be administered once 20 minutes before modeling. Observe for 30 minutes after PLO injection.
Observation indicators: ①Seizure situation: the time of seizures from Grade II to Grade IV; (2)the time to death.
(§3) Seizure grade: Refer to Racine grading standard: Grade 0: No response; Grade I: manifested as twitching of facial muscles or the corners of the mouth; Grade II: can nod; Grade III: twitching of one limb; Grade IV: rigidity or body twitching; Grade V: generalized epilepsy (generalized tonic seizures).
Count the number of Grade IV seizures and deaths in each group of mice in the experiment; Grade II, III and IV incubation period. […] Chi-square test was used for statistics of the number of cases. The mean value and standard error of the incubation period were calculated, and TTEST was used to compare the model group with other groups. P<0.05 was considered as a significant difference.

[6] = test system: PTZ-induced epilepsy in ICR mice; test: Pentylenetetrazole (PTZ) induced epilepsy in mice; assay type: in vivo, mouse; conditions: Retigabine 60 mg/kg
Procedure: • Animals: male ICR mice; • Medicines: Pentylenetetrazol (PTZ), Retigabine, Protein BD-11.
Experiment grouping: • Model group; • Retigabine 60 mg/kg group; • Protein BD-11, 50 mg/kg group, 200 mg/kg group;
The drug was administered once in the afternoon the day before modeling, On the day of modeling, PTZ-65 mg/kg (modeling agent) was injected intraperitoneal 1 hour after the test drug was administered intragastrically, and the positive drug can be administered once half an hour before modeling. Continue to observe for 15 minutes after injection of PTZ.
Observation index: ①Seizure situation: the time of seizures from Grade III to […]; ②Death situation
as §3
Count the cases of seizures and deaths in each group of mice in the experiment; Grade III and IV incubation period. The incubation period of mice that have not attacked to Grade IV is recorded as the maximum of 900 seconds. Chi-square test was used for statistics of the number of cases. Calculate the mean and standard error of the incubation period. Use TTEST to compare the model group with other groups, and P<0.05 is considered as a significant difference.

[7] = 2, 4, 6 and 8 hours after modeling, P<0.05 vs model group
[8] = Aspirin 300 mg/kg, P<0.05 vs model group

## CC(=O)Oc1ccccc1C(=O)O [aspirin, reference compound]
[1]; [7]
  Effect on the increase in body temperature of model rats: can effectively inhibit the increase in body temperature
[1]; 2 h after LPS 20 µg/kg i.p., n=8
  Body temperature 2 hours after modeling: 36.8 ± 0.1 °C
[1]; 4 h after LPS 20 µg/kg i.p., n=8
  Body temperature 4 hours after modeling: 36.9### °C
[1]; 6 h after LPS 20 µg/kg i.p., n=8
  Body temperature 6 hours after modeling: 36.8## °C
[1]; 8 h after LPS 20 µg/kg i.p., n=8
  Body temperature 8 hours after modeling: 36.9±0.1 °C
[2]; [7]
  Effect on the increase in body temperature of model rats: can effectively inhibit the increase in body temperature
[2]; 2 h after 20% yeast s.c., n=8
  Body temperature 2 hours after modeling: 37.0 ±0.1 °C
[2]; 4 h after 20% yeast s.c., n=8
  Body temperature 4 hours after modeling: 37.0±0.1 °C
[2]; 6 h after 20% yeast s.c., n=8
  Body temperature 6 hours after modeling: 37.0±0.1 °C
[2]; 8 h after 20% yeast s.c., n=8
  Body temperature 8 hours after modeling: 37.0±0.1 °C
[3]; [8]
  Effect on incubation period of writhing: significantly delay
  Effect on times of writhing: reduce the times of writhing
[3]; aspirin 300 mg/kg oral, 0.6% acetic acid i.p., n=13
  Writhing incubation period: 290.3 ± 37.0 s
[3]; aspirin 300 mg/kg oral, within 15 minutes, n=13
  Frequency of writhing: 15.2 ± 2.9 times

## COc1ccc2c(c1)[C@]13CCCC[C@@H]1[C@H](C2)N(C)CC3 [Dextromethorphan, dextromethorphan hydrobromide, reference compound]
[4]; Dextromethorphan 15 mg/kg oral, 10% ammonia water 10 s, X±SEM, n=9
  Incubation period (cough): 38.4 ± 4.5 s
[4]; Dextromethorphan 15 mg/kg oral, within 2 minutes, X±SEM, n=9
  Number of coughs: 34.0±2.9
[4]; dextromethorphan 15 mg/kg, P<0.05
  Incubation period and number of coughs vs solvent control group: significant improvement

## CN1C(=O)CN=C(c2ccccc2)c2cc(Cl)ccc21 [Diazepam, reference compound]
[5]; PLO 225 mg/kg i.p., 10 mice
  Cases of deaths: 0
  Grade IV seizure rate: 0**
  mortality rate: 0
[5]; PLO 225 mg/kg i.p., 10 mice, 30 min observation
  Cases of Grade IV: 0**
[5]; PLO model, mean±SEM
  Grade II seizure incubation period: 109 ± 8 s
  Grade III seizure incubation period: 182 ± 14 s
[5]; PLO model, mean±SEM, no Grade IV recorded as maximum 1800 s
  Grade IV seizure incubation period: 1800 ± 0 s

## CCOC(=O)Nc1ccc(NCc2ccc(F)cc2)cc1N [Retigabine, reference compound]
[6]; PTZ 65 mg/kg i.p., 10 mice
  Cases of deaths: 0
  Grade IV seizure rate: 20%**
  mortality rate: 0
[6]; PTZ 65 mg/kg i.p., 10 mice, 15 min observation
  Cases of Grade IV: 2**
[6]; PTZ model, mean±SEM
  Grade III seizure incubation period: 83 ± 7 s
[6]; PTZ model, mean±SEM, no Grade IV recorded as maximum 900 s
  Grade IV seizure incubation period: 745 ± 103 s
